Tested on: Human PBMC
Assay: TLR7/8 agonists induce cytokine release in human PBMC (ELISA of culture supernatant)
Type: cell-based
Details: 24 h incubation, lowest concentration inducing cytokine at least 2x greater than negative control wells
Method: Example 8. TLR7/8 Agonists Induce IFN-Gamma and TNF-Alpha Release in Human PBMC
The system is used to assess the cytokines release. Activity is based on the measurement of interferon-gamma (IFN-γ) and tumor necrosis factor-alpha (TNF-α) secreted into culture media.
Fresh human blood was diluted with the same volume of PBS, 15 mL Lymphoprep was added into a Sepmate tube, then 30 mL diluted blood was added on the top gently without disturbing the interface.
The Sepmate tube was centrifuged for 25 min at 1000×g at RT with brake off.
The buffy coat containing peripheral blood mononuclear cells (PBMCs) was collected from Sepmate tube and transferred into a new tube, and the cells were washed with 40 mL PBS twice and centrifuged at 350×g for 5 min.
PBMCs were resuspended in complete culture medium at a density of 2E6/ml.
The compounds are solubilized in dimethyl sulfoxide (DMSO) and diluted into indicated concentration with complete culture medium.
2*10^5 PBMCs (in 100 μL) were added to each well of 96-well flat bottom plate.
2× final concentration of 3-fold serial diluted compounds (in 100 μL) were added to indicated wells and final volume was 200 μL.
The plate was covered with sterile lids, mixed gently and then incubated for 24 h at 37° C./5% CO2 incubator.
Following incubation, the plates was centrifuged for 5 min. at 400×g. The cell-free culture Supernatant was removed into a non-sterile polypropylene plate. Samples are maintained at −80° C. until analysis. The samples were analyzed for TNF-α and IFN-γ by ELSA according to the direction.
TNF-α and IFN-α were analyzed by ELISA. IFN-α concentration was determined by ELISA using a Human IFN-α ELISA Kit from R&D Systems (Catalog #41100-2) and read on VICTOR Nivo™ from PerkinElmer. Results were expressed in pg/mL. TNF-α concentration was determined by ELISA using a Human TNF-alpha ELISA MAX™ Deluxe from BioLegend (Catalog #430205) and read on VICTOR Nivo™ from PerkinElmer. Results were expressed in pg/mL.
Specifically, the MEC of each compound (micromolar) was determined as the lowest concentration of the compound that induced a measured cytokine response at a level ([…]) that was at least 2× greater than that observed with the negative control wells.

Row | SMILES | MEC to induce cytokine IFN-alpha [µM] | MEC to induce cytokine TNF-alpha [µM]
1 | CCCCc1nc2c(N)nc3cc(P(C)(C)=O)ccc3c2n1OCCCCN [Example 1, (4-amino-1-(4-aminobutoxy)-2-butyl-1H-imidazo[4,5-c]quinolin-7-yl)dimethylphosphine oxide] | 0.046 | 3.7
2 | CCCCc1nc2c(N)nc3cc(P(=O)(CC)CC)ccc3c2n1OCCCCN [Example 2, (4-amino-1-(4-aminobutoxy)-2-butyl-1H-imidazo[4,5-c]quinolin-7-yl)diethylphosphine oxide] | 0.137 | 11.1
3 | CCCCCCCCCCCCCCCCCC(=O)NCCCCOn1c(CCCC)nc2c(N)nc3cc(P(C)(C)=O)ccc3c21 [Example 3, N-(4-((4-amino-2-butyl-7-(dimethylphosphoryl)-1H-imidazo[4,5-c]quinolin-1-yl)oxy)butyl)stearamide] | 0.015 | 0.015
4 | CCCCCCCCCCCCCCCCCNc1c(NCCCCOn2c(CCCC)nc3c(N)nc4cc(P(C)(C)=O)ccc4c32)c(=O)c1=O [Example 4] | 1.73 | 11.1
5 | CCCCCCCCCCCCCCCCCc1cn(CCCCOn2c(CCCC)nc3c(N)nc4cc(P(C)(C)=O)ccc4c32)nn1 [Example 6, (4-amino-2-butyl-1-(4-(4-heptadecyl-1H-1,2,3-triazol-1-yl)butoxy)-1H-imidazo[4,5-c]quinolin-7-yl)dimethylphosphine oxide] | >33.3 | >33.3
6 | CCCCCCCCCCCCCCCCCNc1c(NCCCCOn2c(CCCC)nc3c(N)nc4cc(P(=O)(CC)CC)ccc4c32)c(=O)c1=O [Example 7, 3-(4-(4-amino-2-butyl-7-(diethylphosphoryl)-1H-imidazo[4,5-c]quinolin-1-yloxy)butylamino)-4-(heptadecylamino)cyclobut-3-ene-1,2-dione] | 0.015 | 3.7

From patent publication US11932663B2 (CanWell Biotech Limited, priority 2020, dated 2024)
